According to patent publication US7087228B2, “Preventing tooth decay and infective endocarditis using natural oligopeptides” (University of Southern California, priority 2002, dated 2006):

Legend:
[1] = system: GTFB expression in the wild-type S. mutans; assay: Western blot of GTFB expression after addition of CSP to cultures; type: cell-based; settings: CSP added to fresh cultures at the time of dilution, 1 to 8 mcg/mL, FIG. 6 panel 1
Method: (§1) For the Western blotting, the bacteria were incubated to the desired optical density, subjected to the freeze-thaw cycle and mixed with the sample loading buffer. The samples were heated at 100° C. for 15 minutes and subjected to the PAGE. The number of cells per lane of the gel was kept constant at 10^8 cells. The western blotting was performed in accordance with a standard procedure (Sambrook, J. and Russel D. W. Molecular Cloning, a laboratory manual, 3rd ed. Cold Spring Harbor Laboratory Press, NY, 2001). Briefly, after PAGE the samples were transferred onto the nitrocellulose membrane and the latter subjected to the standard ELISA procedure. The anti-GTFB mouse monoclonal antibody was previously characterized (Fukushima, K., Okada, T., Ochiai, K., Infection and Immunity 61:323–328 (1993), incorporated herein by reference). The secondary antibody (HRP-linked goat anti-mouse) and the detection reagents were purchased from Cell Signaling Technology (Beverly, Mass.).
(§2) Synthetic CSP was dissolved in water to the concentration of 1 mg/mL as described in Li, Y-H et al., J. of Bact., 183:897–908 (2001). […]
(§3) A Western blot analysis was performed to determine the effect of CSP on the level of GTFB expression. […] As a control, the same blot was analyzed with antibody specific to FTF, where it was observed that CSP has no effect on FTF expression (FIG. 6, panel 2).

[2] = system: FTF expression; assay: Western blot control with antibody specific to FTF; type: cell-based, S. mutans; settings: same blot analyzed with antibody specific to FTF; FIG. 6 panel 2
Method: as §1, §2, §3

[3] = system: gtfB gene of S. mutans; assay: Transcriptional fusion assay (gtfB promoter-luciferase, luminescence); type: cell-based; settings: increasing concentrations of CSP, 10 minutes incubation at peak expression (end of lag phase); FIG. 7
Text: The fusion constructs and the transcription assay were previously described (Goodman, S. D. and Gao, Q., Plasmid 43:85–98 (2000)). Briefly, the constructs comprised the upstream regions of the gtfB and gtfC genes fused to the promoterless coding sequence of the firefly luciferase gene and inserted into the plasmid vector pVA838, a shuttle plasmid capable of propagating in both E. coli and S. mutans marked with erythromycin resistance. The plasmids were introduced into S. mutans GS5 by electroporation and the resulting erythromycin resistant strains were grown in liquid cultures and collected at various optical densities. The reporter gene (luciferase) expression was detected by measuring luminescence upon the addition of luciferin (the substrate for luciferase), see Goodman, S. D. and Gao Q. Plasmid 42:154–157 (1999), incorporated herein by reference.
as §2
The transcriptional fusion assay was performed to determine whether CSP inhibits the expression of the gtfB gene of S. mutans. […] When the expression peaked at the end of the lag phase prior to the exponential growth, the cells were challenged with increasing concentrations of CSP for an incubation period of 10 minutes and assessed for luminescence, the measure of reporter gene expression. […]

[4] = system: S. mutans; assay: In vitro attachment assay to a smooth surface (Petri dish) with sucrose; type: cell-based; settings: CSP at 8 μg/mL for 10 minutes prior to hour-long incubation on Petri dishes with sucrose; up to 51% without CSP; FIG. 8
Method: The bacteria were grown in liquid cultures to the desired optical density. 20 ml of the cultures were then transferred into Petri dishes and sucrose added to the final concentration of 2%. The incubation was resumed for one hour, after which the liquid fraction was withdrawn and the fresh medium was added into which the layer of attached cells was scraped. The percentage of the attached bacteria was determined as the ratio of the optical densities of the attached to the total (a sum of attached and unattached) bacteria.
Synthetic CSP was dissolved in water to the concentration of 1 mg/mL as described in Li, Y-H et al., J. of Bact., 183:897–908 (2001). The cultures were grown in Todd Hewitt Broth (THB) supplemented with 5% horse serum. CSP was added to the cultures at the time of diluting the overnight culture (time zero of the culture growth) to a designated concentration between 1 and 8 mcg/mL. The incubation then continued up to the optical density where the expression of GTF is maximal (OD 650=0.1). The cultures where then collected and used in Western blotting with anti-glucosyltransferase (gtf) antibody. […]
An in vitro assay was performed to determine whether CSP can inhibit the attachment of S. mutans to a smooth surface. When sucrose was added to the medium, the wild-type S. mutans readily attached to the surface of a Petri dish. […]

## CSP: natural peptide produced and secreted by S. mutans that acts as an autoinducer; sequence SEQ ID NO: 1 (FIG. 1); synthetic CSP was used (SGSLSTFFRLFNRSFTQALGK; Streptococcus mutans)
[1]
  peak expression of GTFB (Western blot): lowered proportionally to the amount of peptide added
[2]
  effect on FTF expression (Western blot): no effect
[3]
  repression of gtfB reporter gene expression (luminescence): increasing concentrations of CSP increased the magnitude of repression
[4]
  bacterial cells localized to the attached layer: less than 8%
